Data on 23 compounds can be found in ChEMBL document CHEMBL3739319, “Identification of a novel class of autotaxin inhibitors through cross-screening” (Medchemcomm, 2015).

Converted amounts (≈) assume the structure as drawn. The source made the active and inactive calls. No cut-off for these calls is given here.

As usually defined, the Ki is the dissociation constant of the complex between target and ligand, obtained from inhibition or displacement. A higher Ki goes with lower affinity. Broadly, the logD is the decadic logarithm of the distribution of all forms, ionised or not, between an organic phase and buffer at a given pH. Low values mean lower lipophilicity, high ones higher lipophilicity. In general, inhibition refers to the relative decrease from the control value, in per cent.

Data set [1] has as its target T1, Autotaxin (Homo sapiens, UniProt Q13822). Nature of the data set: Inhibition of ATX (unknown origin) using bis-(p-nitrophenyl)phosphate as substrate.
Data set [2] can be described thus: Kinetic solubility of compound in phosphate buffer at pH 7.4 for 1 hr. In kind it is physicochemical. As to conditions: read-out: Kinetic_solubility.
Data set [3] is described as follows: Permeability of compound across artificial membrane after 3 hrs by LC-MS analysis. The conditions noted are these: PAMPA; read-out: permeability. The format is ADME. A general note: PAMPA measures passive passage across an artificial lipid membrane.
The nature of data set [4]: Lipophilicity, log D of compound at pH 7.4 by RP-HPLC analysis. The conditions noted are these: buffer. In kind it is physicochemical.
Data set [5] deals with Lysophosphatidic acid receptor 1 (Homo sapiens) (UniProt Q92633). Nature of the data set: Antagonist activity at LPA1 receptor (unknown origin) expressed in CHO-K1 cells assessed as LPA-induced receptor activity measured as remaining receptor activity at 10 uM compound incubated for 1 hr followed by addition of LPA for 3 hrs by luminometry. The format is cell-based.
Sequence of Lysophosphatidic acid receptor 1 (Homo sapiens) (Q92633 whole entry): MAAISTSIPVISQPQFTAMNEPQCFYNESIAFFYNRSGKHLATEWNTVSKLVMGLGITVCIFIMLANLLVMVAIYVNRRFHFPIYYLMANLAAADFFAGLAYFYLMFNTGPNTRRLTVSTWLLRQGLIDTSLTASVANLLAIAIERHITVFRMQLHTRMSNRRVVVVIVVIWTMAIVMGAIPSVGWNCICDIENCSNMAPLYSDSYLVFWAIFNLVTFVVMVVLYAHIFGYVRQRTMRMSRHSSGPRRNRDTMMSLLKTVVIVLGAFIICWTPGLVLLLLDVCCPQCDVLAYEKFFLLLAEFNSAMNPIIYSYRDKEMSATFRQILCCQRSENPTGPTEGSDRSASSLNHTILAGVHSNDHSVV
For data set [6], the target named is T1, Autotaxin. Nature of the data set: Inhibition of ATX (unknown origin) using bis-(p-nitrophenyl)phosphate as substrate at 30 uM.
Another data set relates to PC-3. Nature of the data set: Inhibition of LPA-induced cell proliferation of human PC3 cells at 10 uM after 18 hrs by [3H]-thymidine incorporation assay. In kind it is functional, cell-based. (In general: Uptake of a labelled nucleoside into DNA is a usual measure of proliferation.)
For the next data set, the system named is A2780. The data set can be described thus: Cytotoxicity against human A2780 cells at 30 uM after 42 hrs by alamar blue assay. In kind it is cell-based. As to conditions: a2780, 42 h. (In general: Alamar Blue is a resazurin reagent that responds to reducing activity.)

For `O=C(Cc1ccc(-c2ccc3[nH]ccc3c2)cc1)OCc1ccccc1`, the inhibition constant (Ki) on Autotaxin [1] was determined as 1.1 µM. The solubility kinetic at 1 h in data set [2] worked out at 0.07 mg/mL (≈ 205 µM). Also, the Papp at 3 h in data set [3] was found to be 445 nm/s. In data set [4], this compound yielded a logD of 7.25.
`CC(C)N1C(=O)CN(Cc2ccc(-c3ccc(CC(=O)O)cc3)cn2)C1=O`: affinity at Autotaxin [1] was put at a Ki of 4 µM. For the same compound, the solubility kinetic at 1 h in data set [2] amounted to 0.108 mg/mL (≈ 294 µM). Further, the Papp at 3 h in data set [3] is less than 10 nm/s. In data set [4], this compound came in with a pH-dependent lipophilicity (logD) of -1.38.
In turn, `O=C1CN(Cc2ccc(Br)cc2)C(=O)N1C1CCCCC1` had a Ki at Autotaxin [1] of less than 5 µM.
Turning to `Brc1ccc(NC2CCOCC2)cc1`, the Ki on Autotaxin [1] was less than 5 µM.
Same read-out and setting: in the case of `COC(=O)CNCc1ccc(Br)cc1` it was less than 5 µM.
With `O=C(O)Cc1ccc(-c2ccc(N(C(=O)OCc3ccccc3)C3CCOCC3)cc2)cc1`, the inhibition constant (Ki) at Autotaxin [1] is greater than 30 µM. In data set [2], the solubility kinetic at 1 h stood at 0.212 mg/mL (≈ 476 µM). Also, in data set [3], the Papp at 3 h was determined as 23 nm/s. The compound further showed a logD in data set [4] of 3.13.
On to `Cc1noc(-c2ccc(CSCCC(=O)O)cc2)c1NC(=O)OC(C)c1ccccc1Cl` (stereo unspecified), for which the Activity in data set [5] amounted to 16%. The compound also showed an inhibition against Autotaxin [6] of less than 20%.
Compound `O=C(Nc1cccc(-c2ccccc2)c1)OCc1ccccc1` registered a Ki on Autotaxin [1] greater than 30 µM. Moreover, in data set [2], the solubility kinetic at 1 h came out at 0.005 mg/mL (≈ 16.5 µM). In addition, the Papp at 3 h in data set [3] amounted to 450 nm/s. For the same compound, the logD in data set [4] came out at 7.52.
For `O=C1CN(Cc2ccc(-c3ccc(C4(C(=O)O)CC4)cc3)cc2)C(=O)N1c1ccccc1`, in that order: greater than 30 µM, 0.195 mg/mL (≈ 457 µM), 16 nm/s and 1.5.
In the case of `Cc1noc(-c2ccc(-c3ccc(CC(=O)O)cc3)cc2)c1NC(=O)O[C@H](C)c1ccccc1`, the Activity in data set [5] was 11%. At Autotaxin [6], the inhibition is less than 20%.
As for `CC(C)N1C(=O)CN(Cc2ccc(-c3ccc(CC(=O)O)cc3)cc2)C1=O`, the Ki at Autotaxin [1] is 1.2 µM. Also, in data set [2], the solubility kinetic at 1 h turned out to be 0.19 mg/mL (≈ 519 µM). In data set [3], the Papp at 3 h stood at 3 nm/s. This compound showed a logD in data set [4] of 1.1.
Regarding `O=C1CN(Cc2ccc(Br)cc2)C(=O)N1c1ccccc1`, the inhibition constant (Ki) on Autotaxin [1] was less than 5 µM.
With `O=C(O)Cc1ccccc1-c1cccc(NC(=O)OCc2ccccc2)c1`, at Autotaxin [1], the Ki came out at 4 µM. In addition, the solubility kinetic at 1 h in data set [2] was 0.287 mg/mL (≈ 794 µM). Further, the Papp at 3 h in data set [3] worked out at 140 nm/s. In data set [4], this compound returned a pH-dependent lipophilicity (logD) of 3.06.
Taken in the same sequence, the figures for `O=C(O)Cc1cccc(-c2cccc(NC(=O)OCc3ccccc3)c2)c1` were 3.5 µM, 0.221 mg/mL (≈ 612 µM), 64 nm/s and 3.1.
At Autotaxin [1], `O=C(Cc1ccc(-c2ccc3cc[nH]c3c2)cc1)OCc1ccccc1` came in with a Ki greater than 30 µM. The solubility kinetic at 1 h in data set [2] worked out at 0.11 mg/mL (≈ 322 µM). The Papp at 3 h in data set [3] amounted to 510 nm/s. This compound also returned a logD in data set [4] of 7.43.
As for `CC(C)N1C(=O)CN(Cc2ccc(Br)cn2)C1=O`, the inhibitory constant (Ki) at Autotaxin [1] was less than 5 µM.
The compound `O=C(O)Cc1ccc(-c2ccc(CN3CC(=O)N(c4ccccc4)C3=O)cc2)cc1` had a Ki at Autotaxin [1] of 3.6 µM. The solubility kinetic at 1 h in data set [2] was found to be 0.175 mg/mL (≈ 436 µM). Moreover, the Papp at 3 h in data set [3] is 3 nm/s. The compound further came in with a logD in data set [4] of 2.18.
With `O=C(O)Cc1ccc(-c2ccc(CN3CC(=O)N(C4CCCCC4)C3=O)nc2)cc1`, the affinity at Autotaxin [1], expressed as Ki, was 3.9 µM. Further, in data set [2], the solubility kinetic at 1 h was 0.093 mg/mL (≈ 228 µM). In addition, the Papp at 3 h in data set [3] is less than 30 nm/s. Moreover, in data set [4], the logD is -0.35.
For `O=C(O)Cc1ccc(-c2ccc(CN3CC(=O)N(C4CCCCC4)C3=O)cc2)cc1`, in that order: 1.8 µM, 0.185 mg/mL (≈ 456 µM), 22 nm/s and 1.12.
Turning to `O=C(O)Cc1ccc(-c2ccc(N(C(=O)OCc3ccccc3)C3CCCCC3)cc2)cc1`, the Ki at Autotaxin [1] turned out to be 2 µM. Moreover, the solubility kinetic at 1 h in data set [2] was found to be 0.189 mg/mL (≈ 426 µM). Moreover, the Papp at 3 h in data set [3] was 150 nm/s. Further, in the data set with PC-3, the inhibition entry is “Active”. Besides, in the data set on A2780, the Activity entry was “Non-toxic”. In data set [4], this compound displayed a log distribution coefficient (logD) of 4.92.
On to `O=C1CN(Cc2ccc(-c3ccccc3)cc2)C(=O)N1c1ccccc1`, for which the affinity on Autotaxin [1] corresponds to a Ki of 1.3 µM. Further, the solubility kinetic at 1 h in data set [2] worked out at 0.0075 mg/mL (≈ 21.9 µM). The Papp at 3 h in data set [3] was 540 nm/s. In the data set with PC-3, the inhibition result is “Active”. Further, the Activity entry in the data set with A2780 is recorded as “Non-toxic”. In data set [4], the logD turned out to be 6.24.
Regarding `COC(=O)CNCc1ccc(Br)cn1`, the Ki at Autotaxin [1] was less than 5 µM.
For the compound `O=C(O)Cc1ccc(-c2cccc(NC(=O)OCc3ccccc3)c2)cc1`, the Ki on Autotaxin [1] worked out at 4.5 µM. In data set [2], the solubility kinetic at 1 h came to 0.198 mg/mL (≈ 548 µM). In data set [3], the Papp at 3 h worked out at 73 nm/s. The inhibition result in the data set with PC-3 was “Active”. For the same compound, the Activity entry in the data set on A2780 is reported as “Non-toxic”. This compound also showed a logD in data set [4] of 3.19.
